Laboratory results taken from patent US20190248765A1, “COMPOUNDS, COMPOSITIONS, AND METHODS FOR INCREASING CFTR ACTIVITY” (Proteostasis Therapeutics, Inc., priority 2016, published 2019).

Biological target: T1, ΔF508-CFTR (Homo sapiens, UniProt P13569, DEL508-508)
T1 construct: Primary lung epithelial cells homozygous for the Cystic Fibrosis-causing ΔF508 mutation were differentiated; endogenous in cells; host or cells: primary human lung/bronchial epithelial cells (hBE) homozygous for ΔF508, differentiated at an air-liquid interface
Assay: hBE Equivalent Current (Ieq) Assay
Format: cell-based
Settings: Compound A at 3 uM, primary lung epithelial cells homozygous for ΔF508, 24 hours treatment
Protocol: ii. hBE Equivalent Current (Ieq) Assay
Primary lung epithelial cells homozygous for the Cystic Fibrosis-causing ΔF508 mutation were differentiated for a minimum of 4 weeks in an air-liquid interface on Costar 24 well HTS filter plates prior to the equivalent current (Ieq) measurements. Cells were apically mucus-washed for 30 minutes 24 h prior to treatment with compounds. The basolateral media was removed and replaced with media containing the compound of interest diluted to its final concentration from DMSO stocks. Treated cells were incubated at 37° C. and 5% CO2 for 24 hours. At the end of the treatment period, the media was changed to the Ieq experimental solution for 2 hours before the experiment and plates are maintained in a CO2-free incubator during this period. The plates containing the cells were then placed in pre-warmed heating blocks at 36° C.±0.5 for 15 minutes before measurements are taken. The transepithelial voltage (VT) and conductance (GT) were measured using a custom 24 channel current clamp (TECC-24) with 24 well electrode manifold. The Ieq assay measurements were made following additions with standardized time periods:
1. The baseline VT and GT values were measured for approximately 20 minutes.
2. Benzamil was added to block ENaC for 15 minutes.
3. Forskolin plus VX-770 were added to maximally activate ΔF508-CFTR for 27 minutes.
4. Bumetanide was added to inhibit the NaK2Cl cotransporter and shut-off secretion of chloride.
The activity data captured was the area under the curve (AUC) for the traces of the equivalent chloride current. The AUC was collected from the time of the forskolin/VX-770 addition until the inhibition by bumetanide addition. Correction in response to compound treatment was scored as the increase in the AUC for compound-treated samples over that of vehicle-treated samples.
(+ indicates activity<150% of a CFTR amplifier (Compound A) with compound at concentration shown and Compound A at 3 uM; ++ indicates activity>150% of a CFTR amplifier with compound at concentration shown and Compound A at 3 uM.

T1 sequence (P13569 with tags, fused parts or gaps DEL508-508): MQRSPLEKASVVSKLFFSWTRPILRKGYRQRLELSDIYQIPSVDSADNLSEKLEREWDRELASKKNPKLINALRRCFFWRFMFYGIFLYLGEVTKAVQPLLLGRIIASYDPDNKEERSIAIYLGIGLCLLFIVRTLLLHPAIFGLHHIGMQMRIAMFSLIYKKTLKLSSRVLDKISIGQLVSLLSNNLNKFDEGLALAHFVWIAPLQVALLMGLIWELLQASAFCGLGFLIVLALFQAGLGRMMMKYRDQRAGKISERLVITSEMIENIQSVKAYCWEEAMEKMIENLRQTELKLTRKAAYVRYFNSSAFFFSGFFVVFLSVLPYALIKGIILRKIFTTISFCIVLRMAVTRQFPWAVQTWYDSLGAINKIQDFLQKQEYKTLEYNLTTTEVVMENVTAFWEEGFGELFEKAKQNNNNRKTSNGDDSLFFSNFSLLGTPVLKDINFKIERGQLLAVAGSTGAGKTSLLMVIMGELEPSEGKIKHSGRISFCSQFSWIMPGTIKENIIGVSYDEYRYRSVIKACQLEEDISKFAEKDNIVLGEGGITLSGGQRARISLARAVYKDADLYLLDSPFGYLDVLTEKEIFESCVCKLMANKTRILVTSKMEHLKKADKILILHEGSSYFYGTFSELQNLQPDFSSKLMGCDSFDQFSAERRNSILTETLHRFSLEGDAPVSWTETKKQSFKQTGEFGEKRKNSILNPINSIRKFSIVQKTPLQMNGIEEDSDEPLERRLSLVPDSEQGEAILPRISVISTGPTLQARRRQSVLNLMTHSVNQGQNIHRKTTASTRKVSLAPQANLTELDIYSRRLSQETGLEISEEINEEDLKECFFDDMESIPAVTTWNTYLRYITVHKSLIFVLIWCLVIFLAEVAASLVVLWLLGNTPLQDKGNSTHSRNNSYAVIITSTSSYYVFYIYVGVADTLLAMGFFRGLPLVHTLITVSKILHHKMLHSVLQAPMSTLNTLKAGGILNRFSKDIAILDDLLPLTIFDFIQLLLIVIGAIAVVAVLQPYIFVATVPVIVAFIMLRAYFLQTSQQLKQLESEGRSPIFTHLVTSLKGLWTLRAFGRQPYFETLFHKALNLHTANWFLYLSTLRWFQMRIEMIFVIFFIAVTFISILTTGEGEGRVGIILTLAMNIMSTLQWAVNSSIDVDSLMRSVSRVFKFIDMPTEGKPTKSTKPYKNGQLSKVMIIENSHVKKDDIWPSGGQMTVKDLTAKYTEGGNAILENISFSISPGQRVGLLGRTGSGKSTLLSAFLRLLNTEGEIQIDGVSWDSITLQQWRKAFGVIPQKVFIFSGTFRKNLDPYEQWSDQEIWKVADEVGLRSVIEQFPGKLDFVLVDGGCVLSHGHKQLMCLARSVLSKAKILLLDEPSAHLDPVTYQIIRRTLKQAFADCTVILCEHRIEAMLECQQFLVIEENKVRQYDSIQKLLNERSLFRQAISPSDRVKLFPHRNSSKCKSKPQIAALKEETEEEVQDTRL

| Compound | Activity (AUC of equivalent chloride current, relative to CFTR amplifier Compound A) (compound at 3 μM) | Activity (AUC of equivalent chloride current, relative to CFTR amplifier Compound A) (compound at 10 μM) |
| --- | --- | --- |
| CC(c1nc2cc(Cl)c(Cl)cc2[nH]1)n1nc(-c2cccc(Cl)c2)ccc1=O (stereo not shown) [Compound 10, 6-(3-Chlorophenyl)-2-(1-(5,6-dichloro-1H-benzo[d]imidazol-2-yl)ethyl)pyridazin-3(2H)-one] | + (activity<150% of a CFTR amplifier (Compound A) with compound at concentration shown and Compound A at 3 uM) | + (activity<150% of a CFTR amplifier (Compound A) with compound at concentration shown and Compound A at 3 uM) |
| COc1cccc(-c2ccc(=O)n(C(C)c3nnc(-c4ccccc4)[nH]3)n2)c1 (stereo not shown) [Compound 11, 6-(3-Methoxyphenyl)-2-[1-(5-phenyl-4H-1,2,4-triazol-3-yl)ethyl]-2,3-dihydropyridazin-3-one] |  | + (activity<150% of a CFTR amplifier (Compound A) with compound at concentration shown and Compound A at 3 uM) |
| COc1cccc(-c2ccc(=O)n(C(C)c3nc4cc(Cl)ccc4[nH]3)n2)c1 (stereo not shown) [Compound 5, 2-(1-(5-Chloro-1H-benzo[d]imidazol-2-yl)ethyl)-6-(3-methoxyphenyl)pyridazin-3(2H)-one] | + (activity<150% of a CFTR amplifier (Compound A) with compound at concentration shown and Compound A at 3 uM) | + (activity<150% of a CFTR amplifier (Compound A) with compound at concentration shown and Compound A at 3 uM) |
| COc1cccc(-c2ccc(=O)n(C(C)c3nc4ccccc4o3)n2)c1 (stereo not shown) [Compound 1, 2-[1-(1,3-benzoxazol-2-yl)ethyl]-6-(3-methoxyphenyl)-2,3-dihydropyridazin-3-one] | + (activity<150% of a CFTR amplifier (Compound A) with compound at concentration shown and Compound A at 3 uM) | + (activity<150% of a CFTR amplifier (Compound A) with compound at concentration shown and Compound A at 3 uM) |
| COc1cccc(-c2ccc(=O)n(C(C)c3nc4cc(C(C)(C)C)ccc4[nH]3)n2)c1 (stereo not shown) [Compound 4, 2-(1-(5-(tert-Butyl)-1H-benzo[d]imidazol-2-yl)ethyl)-6-(3-methoxyphenyl)pyridazin-3(2H)-one] | + (activity<150% of a CFTR amplifier (Compound A) with compound at concentration shown and Compound A at 3 uM) | + (activity<150% of a CFTR amplifier (Compound A) with compound at concentration shown and Compound A at 3 uM) |
| COc1cccc(-c2ccc(=O)n(C(C)c3nc4cc(Cl)c(Cl)cc4[nH]3)n2)c1 (stereo not shown) [Compound 9, 2-(1-(5,6-Dichloro-1H-benzo[d]imidazol-2-yl)ethyl)-6-(3-methoxyphenyl)pyridazin-3(2H)-one] | ++ (activity>150% of a CFTR amplifier with compound at concentration shown and Compound A at 3 uM) | ++ (activity>150% of a CFTR amplifier with compound at concentration shown and Compound A at 3 uM) |
| COc1cccc(-c2ccc(=O)n(C(C)c3nc4cc(C(F)(F)F)ccc4[nH]3)n2)c1 (stereo not shown) [Compound 3, 6-(3-Methoxyphenyl)-2-(1-(5-(trifluoromethyl)-1H-benzo[d]imidazol-2-yl)ethyl)pyridazin-3(2H)-one] | ++ (activity>150% of a CFTR amplifier with compound at concentration shown and Compound A at 3 uM) | ++ (activity>150% of a CFTR amplifier with compound at concentration shown and Compound A at 3 uM) |
| COc1cccc(-c2ccc(=O)n(C(C)c3nc4nc(C(F)(F)F)ccc4[nH]3)n2)c1 (stereo not shown) [Compound 7, 6-(3-Methoxyphenyl)-2-(1-(5-(trifluoromethyl)-1H-imidazo[4,5-b]pyridin-2-yl)ethyl)pyridazin-3(2H)-one] | + (activity<150% of a CFTR amplifier (Compound A) with compound at concentration shown and Compound A at 3 uM) | + (activity<150% of a CFTR amplifier (Compound A) with compound at concentration shown and Compound A at 3 uM) |
| COc1cccc(-c2ccc(=O)n(C(C)c3nnc(-c4ccc(C(F)(F)F)cc4)[nH]3)n2)c1 (stereo not shown) [Compound 12, 6-(3-Methoxyphenyl)-2-(1-(5-(4-(trifluoromethyl)phenyl)-4H-1,2,4-triazol-3-yl)ethyl)pyridazin-3(2H)-one] |  | + (activity<150% of a CFTR amplifier (Compound A) with compound at concentration shown and Compound A at 3 uM) |
| COc1cccc(-c2ccc(=O)n(C(C)c3nc4cc(C(F)(F)F)cnc4[nH]3)n2)c1 (stereo not shown) [Compound 8, 6-(3-Methoxyphenyl)-2-(1-(6-(trifluoromethyl)-3H-imidazo[4,5-b]pyridin-2-yl)ethyl)pyridazin-3(2H)-one] | + (activity<150% of a CFTR amplifier (Compound A) with compound at concentration shown and Compound A at 3 uM) | + (activity<150% of a CFTR amplifier (Compound A) with compound at concentration shown and Compound A at 3 uM) |
| COc1cccc(-c2ccc(=O)n(C(C)c3nc4ccccc4[nH]3)n2)c1 (stereo not shown) [Compound 2, 2-[1-(1H-1,3-benzodiazol-2-yl)ethyl]-6-(3-methoxyphenyl)-2,3-dihydropyridazin-3-one] |  | + (activity<150% of a CFTR amplifier (Compound A) with compound at concentration shown and Compound A at 3 uM) |
| CC(c1nc2cc(C(F)(F)F)ccc2[nH]1)n1nc(-c2cccc(Cl)c2)ccc1=O (stereo not shown) [Compound 6, 6-(3-Chlorophenyl)-2-(1-(5-(trifluoromethyl)-1H-benzo[d]imidazol-2-yl)ethyl)pyridazin-3(2H)-one] | ++ (activity>150% of a CFTR amplifier with compound at concentration shown and Compound A at 3 uM) | ++ (activity>150% of a CFTR amplifier with compound at concentration shown and Compound A at 3 uM) |
| COc1cccc(-c2ccc(=O)n(C(C)c3nnc(-c4cccc(C(F)(F)F)c4)[nH]3)n2)c1 (stereo not shown) [Compound 13, 6-(3-Methoxyphenyl)-2-(1-(5-(3-(trifluoromethyl)phenyl)-4H-1,2,4-triazol-3-yl)ethyl)pyridazin-3(2H)-one] |  | + (activity<150% of a CFTR amplifier (Compound A) with compound at concentration shown and Compound A at 3 uM) |
